Results reported in patent US11021479B2, “Pyridoquinazoline derivatives useful as protein kinase inhibitors” (ONCOSTELLAE, S.L., priority 2017, dated 2021).

How the values were obtained:
Type in all cases: biochemical
Human ARK5/NUAK1 = molecular target: T1, Human ARK5/NUAK1 (Homo sapiens, UniProt O60285); assay: ARK5 activity inhibition test (Reaction Biology kit, 33P-ATP filter assay); settings: ATP 10 μM, peptide substrate 20 μM, 120 min; read-out: ARK5 enzymatic activity (IC50) score
T1 construct: purchased Reaction Biology ARK5/NUAK1
T1 sequence (O60285 1-661): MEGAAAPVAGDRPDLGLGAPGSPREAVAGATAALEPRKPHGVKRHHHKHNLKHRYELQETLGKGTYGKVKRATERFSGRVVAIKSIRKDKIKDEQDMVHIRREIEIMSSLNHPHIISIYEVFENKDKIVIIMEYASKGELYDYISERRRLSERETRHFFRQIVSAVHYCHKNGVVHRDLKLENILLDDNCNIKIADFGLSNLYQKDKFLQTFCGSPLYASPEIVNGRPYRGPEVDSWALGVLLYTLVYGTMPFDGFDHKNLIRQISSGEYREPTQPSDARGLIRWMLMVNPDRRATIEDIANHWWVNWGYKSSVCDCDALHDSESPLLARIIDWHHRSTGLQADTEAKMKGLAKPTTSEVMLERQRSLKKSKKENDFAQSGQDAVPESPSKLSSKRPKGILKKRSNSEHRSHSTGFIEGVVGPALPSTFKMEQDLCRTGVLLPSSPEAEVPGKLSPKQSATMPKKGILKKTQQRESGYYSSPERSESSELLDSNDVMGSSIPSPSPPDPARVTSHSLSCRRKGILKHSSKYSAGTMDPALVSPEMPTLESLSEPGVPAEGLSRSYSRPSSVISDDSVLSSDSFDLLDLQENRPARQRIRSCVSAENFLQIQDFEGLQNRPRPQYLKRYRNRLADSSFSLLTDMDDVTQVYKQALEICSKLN
Procedure: Activity test was carried out using the kit from Reaction Biology (CAT #: ARK5/NUAK1). The test uses enzyme Human ARK5/NUAK1 and the substrate is the peptide […] (SEQ ID NO: 1), 20 μM and ATP 10 μM. Other reagents are the following: Base Reaction buffer; 20 mM Hepes (pH 7.5), 10 mM MgCl2, 1 mM EGTA, 0.02% Brij35, 0.02 mg/ml BSA, 0.1 mM Na3VO4, 2 mM DTT, 1% DMSO.
The reaction was carried out following the instructions of manufacturer. Briefly, kinase/substrate pairs were prepared in reaction buffer. Compounds were delivered into the reaction, followed 20 minutes later by addition of a mixture of ATP (Sigma, St. Louis Mo.) and ^33P ATP (Perkin Elmer, Waltham Mass.) to a final concentration of 10 μM. Reactions were carried out at room temperature for 120 min, followed by spotting of the reactions onto P81 ion exchange filter paper (Whatman Inc., Piscataway, N.J.). Unbound phosphate was removed by extensive washing of filters in 0.75% phosphoric acid. […] IC50 values and curve fits were obtained using Prism (GraphPad Software).

JAK1 = molecular target: T2, JAK1 (Homo sapiens, UniProt P23458); assay: Functional assay of protein Janus kinases (Caliper mobility shift), JAK1; settings: ATP 100 μM, incubation 150 min; read-out: JAK1 enzymatic activity (IC50) score
T2 construct: purchased Carna Biosciences 08-144
Procedure: (§1) The functional assays of protein Janus kinases were carried out in 384-well plates using a final volume of 30 μl. […] The reaction was reads in a “Caliper EzReader LabChip 3000” (Caliper, Hopkinton, Mass.) reader, based on electrophoretic mobility of the fluorescent substrate and the phosphorylated product.
(§2) The inhibition percentages were calculated by comparison between control reactions, for 100% of inhibition and reactions with only DMSO for 0% of inhibition.

JAK2 = molecular target: T3, JAK2 (Homo sapiens, UniProt O60674); assay: Functional assay of protein Janus kinases (Caliper mobility shift), JAK2; settings: ATP 300 μM, incubation 30 min; read-out: JAK2 enzymatic activity (IC50) score
T3 construct: purchased Carna Biosciences 08-045
Procedure: as §1, §2

JAK3 = molecular target: T4, JAK3 (Homo sapiens, UniProt P52333); assay: Functional assay of protein Janus kinases (Caliper mobility shift), JAK3; settings: ATP 8 μM, incubation 30 min; read-out: JAK3 enzymatic activity (IC50) score
T4 construct: purchased Carna Biosciences 08-046
Procedure: as §1, §2

TYK2 = molecular target: T5, TYK2 (Homo sapiens, UniProt P29597); assay: Functional assay of protein Janus kinases (Caliper mobility shift), TYK2; settings: ATP 20 μM, incubation 45 min; read-out: TYK2 enzymatic activity (IC50) score
T5 construct: purchased Carna Biosciences 08-147
T5 sequence (P29597 871-1187 limits assumed): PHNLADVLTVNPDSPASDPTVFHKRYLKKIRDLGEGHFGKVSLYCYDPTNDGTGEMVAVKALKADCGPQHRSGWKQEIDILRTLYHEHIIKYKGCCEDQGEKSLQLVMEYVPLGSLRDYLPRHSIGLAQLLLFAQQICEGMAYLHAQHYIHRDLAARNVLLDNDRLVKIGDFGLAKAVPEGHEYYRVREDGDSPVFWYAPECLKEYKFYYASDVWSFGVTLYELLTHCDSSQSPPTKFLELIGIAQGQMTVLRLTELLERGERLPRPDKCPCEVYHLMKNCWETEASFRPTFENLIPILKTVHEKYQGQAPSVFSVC
Procedure: as §1, §2

T3 sequence (O60674 826-1132 limits assumed): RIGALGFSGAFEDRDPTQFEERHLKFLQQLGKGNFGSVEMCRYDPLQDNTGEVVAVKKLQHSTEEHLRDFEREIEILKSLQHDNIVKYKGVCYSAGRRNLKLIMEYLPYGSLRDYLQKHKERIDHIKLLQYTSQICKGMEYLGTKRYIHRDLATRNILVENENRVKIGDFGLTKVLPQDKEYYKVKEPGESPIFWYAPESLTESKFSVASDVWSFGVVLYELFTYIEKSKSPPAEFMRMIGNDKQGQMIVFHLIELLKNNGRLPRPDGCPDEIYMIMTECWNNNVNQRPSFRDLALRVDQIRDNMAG
T4 sequence (P52333 795-1124 limits assumed): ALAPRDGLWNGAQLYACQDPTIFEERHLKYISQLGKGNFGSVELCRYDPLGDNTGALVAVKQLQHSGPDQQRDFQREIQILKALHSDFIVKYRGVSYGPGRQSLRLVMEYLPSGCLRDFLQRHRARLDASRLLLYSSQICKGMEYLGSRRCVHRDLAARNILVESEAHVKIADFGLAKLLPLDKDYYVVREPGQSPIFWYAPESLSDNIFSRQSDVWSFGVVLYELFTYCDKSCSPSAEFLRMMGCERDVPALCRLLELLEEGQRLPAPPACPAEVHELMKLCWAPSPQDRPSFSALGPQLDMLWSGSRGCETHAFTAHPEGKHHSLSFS
T2 sequence (P23458 850-1154 limits assumed): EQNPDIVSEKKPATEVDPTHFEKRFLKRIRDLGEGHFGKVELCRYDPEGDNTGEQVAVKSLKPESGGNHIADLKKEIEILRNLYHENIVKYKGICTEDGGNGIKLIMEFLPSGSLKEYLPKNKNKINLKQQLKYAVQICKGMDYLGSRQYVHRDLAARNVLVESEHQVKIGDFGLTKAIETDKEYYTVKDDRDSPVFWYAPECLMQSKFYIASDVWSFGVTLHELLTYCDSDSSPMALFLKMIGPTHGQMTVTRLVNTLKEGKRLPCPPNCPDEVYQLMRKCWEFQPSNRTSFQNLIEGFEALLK

| IC50 (Human ARK5/NUAK1) [nM] | IC50 (JAK1) [nM] | IC50 (JAK2) [nM] | IC50 (JAK3) [nM] | IC50 (TYK2) [nM] | Compound |
| --- | --- | --- | --- | --- | --- |
| < 100 | > 1000 | > 1000 | < 100 | < 100 | O=C(NC1CCCCC1)c1cccn2c(=O)c3cc(C4CC4)ccc3nc12 [Example 1, N-cyclohexyl-2-cyclopropyl-11-oxo-11H-pyrido[2,1-b]quinazoline-6-carboxamide] |
| < 100 | > 1000 | > 1000 | < 100 | < 100 | O=C(NC1CCCC1)c1cccn2c(=O)c3cc(C4CC4)ccc3nc12 [Example 2, N-cyclopentyl-2-cyclopropyl-11-oxo-11H-pyrido[2,1-b]quinazoline-6-carboxamide] |
| < 100 | – | – | < 100 | < 100 | COc1ccc2nc3c(C(=O)NC4CCCCC4)cccn3c(=O)c2c1 [Example 20, N-cyclohexyl-2-methoxy-11-oxo-11H-pyrido[2,1-b]quinazoline-6-carboxamide] |
| < 100 | > 1000 | > 1000 | 100 to 1000 | > 1000 | O=C(NC1CCCCC1)c1cccn2c(=O)c3cc(-c4ccc(F)cc4)ccc3nc12 [Example 29, N-cyclohexyl-2-(4-fluorophenyl)-11-oxo-11H-pyrido[2,1-b]quinazoline-6-carboxamide] |
| < 100 | > 1000 | > 1000 | < 100 | < 100 | O=C(NC1CCCCC1)c1cccn2c(=O)c3cc(-c4ccncc4)ccc3nc12 [Example 33, N-cyclohexyl-11-oxo-2-(pyridin-4-yl)-11H-pyrido[2,1-b]quinazoline-6-carboxamide] |
| < 100 | > 1000 | > 1000 | < 100 | < 100 | CN1CCN(c2ccc3nc4c(C(=O)NC5CCCCC5)cccn4c(=O)c3c2)CC1 [Example 36, N-cyclohexyl-2-(4-methylpiperazin-1-yl)-11-oxo-11H-pyrido[2,1-b]quinazoline-6-carboxamide] |
| < 100 | > 1000 | > 1000 | < 100 | < 100 | O=C(NC1CCCCC1)c1cccn2c(=O)c3cc(N4CCOCC4)ccc3nc12 [Example 38, N-cyclohexyl-2-morpholino-11-oxo-11H-pyrido[2,1-b]quinazoline-6-carboxamide] |
